Among the data in patent US7173026B2, “Pyrrolo [2,1-c][1,4]benzodiazepine-anthraquinone conjugates useful as antitumour agents” (Council of Scientific and Industrial Research, priority 2004, dated 2007) are percentage growth inhibition values, retold here.

Holding throughout (assay type): cell-based
What all share (settings): 48 hours

Assay [1] has as its system A-549. Description: In vitro cytotoxicity against human cancer cell lines (sulforhodamine B), A-549. As to the method:
(§1) In vitro cytotoxicity against human cancer cell lines: The human cancer cell lines procured from National Cancer Institute, Frederick, U.S.A or National Center for Cell Science; Pune, India. were used in present study. Cells were grown in tissue culture flasks in complete growth medium (RPMI-1640 medium with 2 mM glutamine, 100 μg/ml streptomycin, pH 7.4, sterilized by filtration and supplemented with 10% fetal calf serum and 100 units/ml penicillin before use) at 37° C. in an atmosphere of 5% CO2 and 90% relative humidity in a carbon dioxide incubator. The cells at subconfluent stage were harvested from the flask by treatment with trypsin (0.5% in PBS containing 0.02% EDTA) for determination of cytotoxicity. Cells with viability of more than 98% as determined by trypan blue exclusion were used for assay. Cell suspension of the required cell density were prepared in complete growth medium with gentamycin (50 μg/ml) for determination of cytotoxicity.
(§2) Stock solutions of (2×10–2 M of test material were prepared in DMSO (Dimethyl sulphoxide). The stock solutions were serially diluted with complete growth medium containing 50 μg/ml of gentamycin to obtain working test solutions of required concentrations.
(§3) In vitro cytotoxicity against human cancer cell lines was determined (Monks, A , Scudiero, D., Skehan, P., Shoemaker R., Paull, K., Vistica, D., Hose, C., Langley, j., Cronise, P., Vaigro-Wolff, A., Gray-Goodrich, M., Campbell, H., Mayo, J and Boyd m.J. Natl. Cancer Inst., 1991, 83, 757–766) using 96-well tissue culture plates. 100 μl of cell suspension was added to each well of the 96-well tissue culture plate. The cells were incubated for 24 hours. Test materials in complete growth medium (100 μl) were added after 24 hours incubation to the wells containing cell suspension. The plates were further incubated for 48 hours (at 37° C. in an atmosphere of […] 90% relative humidity in a carbon dioxide incubator) after addition of test material and then the cell growth was stopped by gently layering trichloroacetic acid (TCA, 50 μl, 50%) on top of the medium in all the wells. The plates were incubated at 4° C. for one hour to fix the cells attached to the bottom of the wells. The liquid of all the wells was gently pipetted out and discarded. The plates were washed five times with distilled water to remove TCA, growth medium low molecular weight metabolites, serum proteins etc and air-dried. Cell growth was measured by staining with sulforhodamine B dye (Skehan et al., 1990). The adsorbed dye was dissolved in Tris-Buffer (100 m l, 0.01M, pH 10.4) and plates were gently stirred for 5 minutes on a mechanical stirrer. The optical density was recorded on ELISA reader at 540 nm.
(§4) The cell growth was calculated by subtracting mean OD value of respective blank from the mean OD value of experimental set. Percent growth in presence of test material was calculated considering the growth in absence of any test material as 100% and in turn percent growth inhibition in presence of test material will be calculated.

Assay [2] has as its system HT-29. In words: In vitro cytotoxicity against human cancer cell lines (sulforhodamine B), HT-29. The procedure: as §1, §2, §3, §4
Assay [3] concerns HCT-15. In words: In vitro cytotoxicity against human cancer cell lines (sulforhodamine B), HCT-15. The procedure:
as §1, §2
as §3, with “The plates were washed five times with distilled water to remove TCA, growth medium low molecular weight metabolites, serum proteins etc and air-dried.” left out, “The adsorbed dye was dissolved in Tris-Buffer (100 m l, 0.01M, pH 10.4) and plates were gently stirred for 5 minutes on a mechanical stirrer.” left out
as §4

Assay [4] has as its system HOP-62. Description: In vitro cytotoxicity against human cancer cell lines (sulforhodamine B), HOP-62. As to the method: as §1, §2
as §3, with “The plates were washed five times with distilled water to remove TCA, growth medium low molecular weight metabolites, serum proteins etc and air-dried.” left out, “The adsorbed dye was dissolved in Tris-Buffer (100 m l, 0.01M, pH 10.4) and plates were gently stirred for 5 minutes on a mechanical stirrer.” left out
as §4

Assay [5] deals with SiHa. Description: In vitro cytotoxicity against human cancer cell lines (sulforhodamine B), SiHa. As to the method:
as §1, §2, §3, §4

The mark [6] stands for this setting: A-549, concentration 10-4 mol/L.
Where [7] appears, read: A-549, concentration 10-5 mol/L.
Setting [8] is: A-549, concentration 10-6 mol/L.
Where [9] appears, read: HT-29, concentration 10-4 mol/L.
[10] abbreviates: HT-29, concentration 10-5 mol/L.
The mark [11] stands for this setting: HT-29, concentration 10-6 mol/L.
The mark [12] stands for this setting: HCT-15, concentration 10-5 mol/L.
[13] abbreviates: HCT-15, concentration 10-6 mol/L.
Where [14] appears, read: HOP-62, concentration 10-5 mol/L.
Setting [15] is: HOP-62, concentration 10-6 mol/L.

Take `COc1cc2c(cc1OCCCC(=O)Nc1cccc3c1C(=O)c1ccccc1C3=O)N=C[C@@H]1CCCN1C2=O` [compound Va, 7-Methoxy-8-[N-(9,10-dihydro-9,10-dioxo-1-anthracenyl)-propane-3-carboxamide]-oxy-(11aS)-1,2,3,11a tetrahydro-5H-pyrrolo[2,1-c][1,4]benzodiazepin-5-one]: the percentage growth inhibition is given as 93% in assay [1] (setting [6]); 27% in assay [1] (setting [7]); 47% in assay [1] (setting [8]); 93% in assay [2] (setting [9]); 86% in assay [2] (setting [10]); 68% in assay [2] (setting [11]). For the same compound, the percentage growth inhibition in assay [3] (setting [12]) was found to be 66%; in assay [3] (setting [13]) it was 59%; in assay [4] (setting [14]), 90%; in assay [4] (setting [15]), 74%; in assay [5] (concentration 10-4 mol/L), 57%; in assay [5] (concentration 10-5 mol/L), 52%. In assay [5] (concentration 10-6 mol/L), this compound came in with a percentage growth inhibition of 41%.

Turning to `COc1cc2c(cc1OCCCCC(=O)Nc1cccc3c1C(=O)c1ccccc1C3=O)N=C[C@@H]1CCCN1C2=O` [compound Vc, 7-Methoxy-8-[N-(9,10-dihydro-9,10-dioxo-1-anthracenyl)-butane-4-carboxamide]-oxy-(11aS)-1,2,3,11a tetrahydro-5H-pyrrolo [2,1-c][1,4]benzodiazepin-5-one], the percentage growth inhibition in assay [1] (setting [6]) is listed as 93%; in assay [1] (setting [7]), 10%; in assay [1] (setting [8]) it was 56%; in assay [2] (setting [9]) it was 93%; in assay [2] (setting [10]) it was 87%; in assay [2] (setting [11]) it was 73%. Further, the percentage growth inhibition in assay [3] (setting [12]) turned out to be 82%; in assay [3] (setting [13]) it was 61%; in assay [4] (setting [14]) it was 97%; in assay [4] (setting [15]) it was 73%; in assay [5] (concentration 10-4 mol/L), 73%; in assay [5] (concentration 10-5 mol/L), 49%. For the same compound, the percentage growth inhibition in assay [5] (concentration 10-6 mol/L) is reported as 40%.
